Measured values taken from ChEMBL document CHEMBL1158285, “Constituents from the stem wood of Euphorbia quinquecostata with phorbol dibutyrate receptor-binding inhibitory activity” (J Nat Prod, 1996).
The source made the active and inactive calls. The calls are words filed in the database; no cut-off is given here.

Target: not listed separately
Test: (§1) Displacement of [3H]PDBu from PKC in calf brain homogenate
Type: tissue-based, Bos taurus

| IC50 | SMILES |
| --- | --- |
| 0.023 µM | CCCCCCCCCCCCCCCC(=O)OCC1=C[C@@H]2C(=O)[C@]3(C=C(C)[C@H](O)[C@@]3(O)[C@@H]1O)[C@H](C)C[C@@H]1[C@H]2[C@]1(C)CO |
| 73 µM | CC1(C)[C@H](O)CC[C@]2(C)[C@@H]1CC[C@@]13CC[C@@H](C[C@H]12)[C@](O)(CO)C3 |
| 66 µM | CC1(C)C(=O)CC[C@]2(C)[C@@H]1CC[C@@]13CC[C@@H](C[C@H]12)[C@](O)(CO)C3 |
| > 275 µM | CCCCCCCCCCCCCCCC(=O)OCC1=C[C@@H]2C(=O)[C@]3(C=C(C)[C@H](OC(C)=O)[C@@]3(O)[C@@H]1OC(C)=O)[C@H](C)C[C@@H]1[C@H]2[C@]1(C)COC(C)=O |
| 5.3 µM | CCCCCCCCCCCCCCCC(=O)OCC1=C[C@@H]2C(=O)[C@]3(C=C(C)[C@H](O)[C@@]3(O)[C@@H]1O)[C@H](C)C[C@@H]1[C@H]2C1(C)C |
| > 630 µM | C=C1C[C@@]23CC[C@@H]4C(C)(C)C(=O)CC[C@@]4(C)[C@@H]2C[C@@H]1[C@H](O)C3=O |

Species: Bos taurus
Test: as §1
Type: tissue-based

| Activity | SMILES |
| --- | --- |
| inactive | COc1cc(OC)c(C(=O)CO)c(O)c1C |
